Data as given in ChEMBL document CHEMBL5331098, “Nanomolar β-glucosidase and β-galactosidase inhibition by enantiomeric α-1-C-alkyl-1,4-dideoxy-1,4-imino-arabinitol derivatives” (Eur J Med Chem, 2023).

How the values were obtained:
[1] = target: Alpha-glucosidase (Saccharomyces cerevisiae S288c) (UniProt P53341+P38158+P07265); assay: Inhibition of yeast alpha-glucosidase assessed as reduction of p-nitrophenol release using p-nitrophenyl glycoside as substrate at 1000 uM by spectrophotometric analysis relative to control; type: protein assay
[2] = Inhibition of rice alpha-glucosidase assessed as reduction of p-nitrophenol release using p-nitrophenyl glycoside as substrate by spectrophotometric analysis; design: species or system Oryza sativa
[3] = Inhibition of rat intestinal maltase assessed as D-glucose release using maltose as substrate at pH 6.8 by colorimetric method
Prunus dulcis = assay: Inhibition of almond beta-glucosidase assessed as reduction of p-nitrophenol release using p-nitrophenyl glycoside as substrate at 1000 uM by spectrophotometric analysis relative to control
Bos taurus [4] = species: Bos taurus; assay: Inhibition of bovine liver beta-glucosidase assessed as reduction of p-nitrophenol release using p-nitrophenyl glycoside as substrate at 1000 uM by spectrophotometric analysis relative to control
[5] = Inhibition of human lysosomal beta-glucosidase assessed as reduction of p-nitrophenol release using p-nitrophenyl glycoside as substrate by spectrophotometric analysis
[6] = target: Alpha-galactosidase (Coffea arabica) (UniProt Q42656); assay: Inhibition of coffee beans alpha-galactosidase assessed as reduction of p-nitrophenol release using p-nitrophenyl glycoside as substrate at 1000 uM by spectrophotometric analysis relative to control
Alpha-galactosidase (Coffea arabica), sequence (Q42656 16-378 limits assumed): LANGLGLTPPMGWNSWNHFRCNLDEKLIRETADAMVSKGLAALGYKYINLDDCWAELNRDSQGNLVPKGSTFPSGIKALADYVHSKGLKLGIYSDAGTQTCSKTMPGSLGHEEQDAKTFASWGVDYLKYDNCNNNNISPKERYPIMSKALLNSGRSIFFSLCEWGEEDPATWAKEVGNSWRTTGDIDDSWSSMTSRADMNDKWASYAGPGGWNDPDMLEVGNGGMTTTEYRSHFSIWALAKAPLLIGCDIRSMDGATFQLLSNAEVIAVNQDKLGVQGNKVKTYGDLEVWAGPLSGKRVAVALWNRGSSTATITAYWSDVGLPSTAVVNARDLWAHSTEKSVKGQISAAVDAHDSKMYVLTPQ

[7] = Inhibition of bovine liver beta-galactosidase assessed as reduction of p-nitrophenol release using p-nitrophenyl glycoside as substrate by spectrophotometric analysis; design: species or system Bos taurus
[8] = target: T1, Alpha-mannosidase (Canavalia ensiformis) (UniProt C0HJB3); assay: Inhibition of jack bean alpha-mannosidase assessed as reduction of p-nitrophenol release using p-nitrophenyl glycoside as substrate at 1000 uM by spectrophotometric analysis relative to control
T1 sequence (whole entry): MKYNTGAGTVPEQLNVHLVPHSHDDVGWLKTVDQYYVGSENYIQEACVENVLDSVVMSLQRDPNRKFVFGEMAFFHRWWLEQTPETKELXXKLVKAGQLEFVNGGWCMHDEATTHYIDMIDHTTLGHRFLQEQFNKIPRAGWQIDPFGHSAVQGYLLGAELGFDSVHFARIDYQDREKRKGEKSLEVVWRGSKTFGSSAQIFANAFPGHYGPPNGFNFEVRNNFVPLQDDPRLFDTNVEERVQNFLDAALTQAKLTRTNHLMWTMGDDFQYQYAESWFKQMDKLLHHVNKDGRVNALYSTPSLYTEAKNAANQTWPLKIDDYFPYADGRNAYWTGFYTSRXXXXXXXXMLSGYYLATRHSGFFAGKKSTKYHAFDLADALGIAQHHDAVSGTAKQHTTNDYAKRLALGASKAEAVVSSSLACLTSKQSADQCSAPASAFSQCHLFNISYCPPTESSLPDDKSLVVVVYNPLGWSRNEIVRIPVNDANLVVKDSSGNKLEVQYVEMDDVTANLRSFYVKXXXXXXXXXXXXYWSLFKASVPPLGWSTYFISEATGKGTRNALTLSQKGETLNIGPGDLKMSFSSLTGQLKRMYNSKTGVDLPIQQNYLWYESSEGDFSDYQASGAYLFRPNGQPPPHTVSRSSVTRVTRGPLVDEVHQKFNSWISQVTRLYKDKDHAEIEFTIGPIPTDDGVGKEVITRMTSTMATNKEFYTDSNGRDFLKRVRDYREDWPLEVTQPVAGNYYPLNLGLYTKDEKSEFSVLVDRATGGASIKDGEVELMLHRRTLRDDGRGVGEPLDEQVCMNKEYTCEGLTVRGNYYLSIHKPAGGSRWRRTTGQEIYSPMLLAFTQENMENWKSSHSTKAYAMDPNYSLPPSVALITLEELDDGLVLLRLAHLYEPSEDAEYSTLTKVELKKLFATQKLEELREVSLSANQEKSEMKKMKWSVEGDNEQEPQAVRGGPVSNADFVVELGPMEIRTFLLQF

Helix pomatia = assay: Inhibition of snail beta-mannosidase assessed as reduction of p-nitrophenol release using p-nitrophenyl glycoside as substrate at 1000 uM by spectrophotometric analysis relative to control
[9] = target: T2, Tissue alpha-L-fucosidase (Bos taurus) (UniProt Q2KIM0); assay: Inhibition of bovine kidney alpha-L-fucosidase assessed as reduction of p-nitrophenol release using p-nitrophenyl glycoside as substrate at 1000 uM by spectrophotometric analysis relative to control
T2 sequence (whole entry): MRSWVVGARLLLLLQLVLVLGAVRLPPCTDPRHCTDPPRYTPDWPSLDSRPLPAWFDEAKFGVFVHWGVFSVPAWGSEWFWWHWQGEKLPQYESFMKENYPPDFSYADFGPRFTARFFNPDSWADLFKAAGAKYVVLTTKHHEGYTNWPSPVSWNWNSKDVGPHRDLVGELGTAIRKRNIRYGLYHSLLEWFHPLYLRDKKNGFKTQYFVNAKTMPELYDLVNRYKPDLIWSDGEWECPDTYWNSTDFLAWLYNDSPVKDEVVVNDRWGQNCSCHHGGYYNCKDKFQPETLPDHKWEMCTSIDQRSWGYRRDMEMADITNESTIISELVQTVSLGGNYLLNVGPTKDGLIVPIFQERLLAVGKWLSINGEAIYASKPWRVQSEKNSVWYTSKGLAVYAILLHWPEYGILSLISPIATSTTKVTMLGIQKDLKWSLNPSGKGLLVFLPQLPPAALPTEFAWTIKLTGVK

Sus scrofa = species: Sus scrofa; assay: Inhibition of porcine kidney alpha/alpha-trehalase assessed as reduction of p-nitrophenol release using p-nitrophenyl glycoside as substrate at 1000 uM by spectrophotometric analysis relative to control
Aspergillus niger = assay: Inhibition of Aspergillus niger amyloglucosidase assessed as reduction of p-nitrophenol release using p-nitrophenyl-glycoside as substrate at 1000 uM by spectrophotometric analysis relative to control
Penicillium decumbens = assay: Inhibition of Penicillium decumbens alpha-L-rhamnosidase assessed as reduction of p-nitrophenol release using p-nitrophenyl-glycoside as substrate at 1000 uM by spectrophotometric analysis relative to control
[10] = target: Beta-glucuronidase (Escherichia coli (strain K12)) (UniProt P05804); assay: Inhibition of Escherichia coli beta-glucuronidase assessed as reduction of p-nitrophenol release using p-nitrophenyl-glycoside as substrate at 1000 uM by spectrophotometric analysis relative to control
Beta-glucuronidase (Escherichia coli (strain K12)), sequence (P05804 whole entry, looked up): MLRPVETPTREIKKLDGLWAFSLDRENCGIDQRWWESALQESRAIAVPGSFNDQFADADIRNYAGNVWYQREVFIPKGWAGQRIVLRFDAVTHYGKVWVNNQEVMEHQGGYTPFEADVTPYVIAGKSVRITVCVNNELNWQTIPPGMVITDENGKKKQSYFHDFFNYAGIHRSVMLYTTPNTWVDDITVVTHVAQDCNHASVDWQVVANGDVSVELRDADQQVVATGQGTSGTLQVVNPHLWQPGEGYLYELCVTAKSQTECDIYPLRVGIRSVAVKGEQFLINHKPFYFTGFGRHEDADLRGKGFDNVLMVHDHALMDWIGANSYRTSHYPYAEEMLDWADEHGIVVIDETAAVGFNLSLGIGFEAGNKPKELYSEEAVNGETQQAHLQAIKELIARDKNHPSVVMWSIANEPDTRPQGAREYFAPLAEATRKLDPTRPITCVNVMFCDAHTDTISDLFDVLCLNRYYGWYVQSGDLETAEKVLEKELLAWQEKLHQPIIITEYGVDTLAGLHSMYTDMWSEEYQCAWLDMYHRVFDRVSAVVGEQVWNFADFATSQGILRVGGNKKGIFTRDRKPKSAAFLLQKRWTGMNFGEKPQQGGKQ

Bos taurus [11] = species: Bos taurus; assay: Inhibition of bovine liver beta-glucuronidase assessed as reduction of p-nitrophenol release using p-nitrophenyl-glycoside as substrate at 1000 uM by spectrophotometric analysis relative to control
Rattus norvegicus = species: Rattus norvegicus; assay: Inhibition of rat intestinal maltase assessed as D-glucose release using maltose as substrate at pH 6.8 at 1000 uM by colorimetric method relative to control
[12] = Inhibition of almond beta-glucosidase assessed as reduction of p-nitrophenol release using p-nitrophenyl glycoside as substrate by spectrophotometric analysis; design: species or system Prunus dulcis
[13] = Inhibition of bovine liver beta-glucosidase assessed as reduction of p-nitrophenol release using p-nitrophenyl glycoside as substrate by spectrophotometric analysis; design: species or system Bos taurus
Alpha-galactosidase = Alpha-galactosidase (Coffea arabica, UniProt Q42656); assay: Inhibition of coffee beans alpha-galactosidase assessed as reduction of p-nitrophenol release using p-nitrophenyl glycoside as substrate by spectrophotometric analysis
Alpha-galactosidase, sequence (Q42656 whole entry): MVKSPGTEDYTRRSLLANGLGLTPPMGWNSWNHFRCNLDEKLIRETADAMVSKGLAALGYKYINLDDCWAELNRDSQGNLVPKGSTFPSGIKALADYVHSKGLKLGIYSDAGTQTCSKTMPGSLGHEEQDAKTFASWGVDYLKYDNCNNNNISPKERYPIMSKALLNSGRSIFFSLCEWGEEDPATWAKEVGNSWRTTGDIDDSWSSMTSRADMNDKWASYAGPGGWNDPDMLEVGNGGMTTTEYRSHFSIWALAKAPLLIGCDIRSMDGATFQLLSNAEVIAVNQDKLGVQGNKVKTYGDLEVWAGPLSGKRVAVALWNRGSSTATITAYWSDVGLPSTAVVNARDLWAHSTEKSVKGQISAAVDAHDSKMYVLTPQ

Alpha-mannosidase = target: T3, Alpha-mannosidase (Canavalia ensiformis, UniProt C0HJB3); assay: Inhibition of jack bean alpha-mannosidase assessed as reduction of p-nitrophenol release using p-nitrophenyl glycoside as substrate by spectrophotometric analysis
T3 sequence (C0HJB3 whole entry): T1 sequence (whole entry)

[14] = Inhibition of Penicillium decumbens alpha-L-rhamnosidase assessed as reduction of p-nitrophenol release using p-nitrophenyl-glycoside as substrate by spectrophotometric analysis
Beta-glucuronidase = Beta-glucuronidase (Escherichia coli (strain K12), UniProt P05804); assay: Inhibition of Escherichia coli beta-glucuronidase assessed as reduction of p-nitrophenol release using p-nitrophenyl-glycoside as substrate by spectrophotometric analysis
Beta-glucuronidase, sequence (P05804 whole entry): as the sequence (P05804 whole entry, looked up) above

Alpha-glucosidase = Alpha-glucosidase (Saccharomyces cerevisiae S288c, UniProt P53341+P38158+P07265); assay: Inhibition of yeast alpha-glucosidase assessed as reduction of p-nitrophenol release using p-nitrophenyl glycoside as substrate by spectrophotometric analysis; type: protein assay
[15] = Inhibition of snail beta-mannosidase assessed as reduction of p-nitrophenol release using p-nitrophenyl glycoside as substrate by spectrophotometric analysis; design: species or system Helix pomatia
[16] = Inhibition of Aspergillus niger amyloglucosidase assessed as reduction of p-nitrophenol release using p-nitrophenyl-glycoside as substrate by spectrophotometric analysis
Oryza sativa = assay: Inhibition of rice alpha-glucosidase assessed as reduction of p-nitrophenol release using p-nitrophenyl glycoside as substrate at 1000 uM by spectrophotometric analysis relative to control
Bos taurus [17] = species: Bos taurus; assay: Inhibition of bovine liver beta-galactosidase assessed as reduction of p-nitrophenol release using p-nitrophenyl glycoside as substrate at 1000 uM by spectrophotometric analysis relative to control

inhibition [1] [%] | IC50 [2] [µM] | IC50 [3] [µM] | IC50 [5] [µM] | inhibition [6] [%] | IC50 [7] [µM] | inhibition [8] [%] | inhibition (Helix pomatia) [%] | inhibition [9] [%] | inhibition (Sus scrofa) [%] | inhibition (Aspergillus niger) [%] | inhibition (Penicillium decumbens) [%] | inhibition (Bos taurus [11]) [%] | inhibition (Rattus norvegicus) [%] | IC50 [12] [µM] | IC50 [13] [µM] | IC50 (Beta-glucuronidase) [µM] | IC50 (Alpha-glucosidase) [µM] | IC50 [15] [µM] | IC50 [16] [µM] | other results | Structure (SMILES)
11.4 | 21 | 22 | 6.3 | 1 | 75 | 0 | 0.8 | 0 | 0 | 8.7 | 4.6 | 18.4 |  |  |  |  |  |  |  | inhibition (Prunus dulcis): 21.8%; inhibition (Bos taurus [4]): 40%; inhibition [10]: 23.5% | CC(C)(C)c1ccc(CCCCCC[C@@H](O)[C@@H]2N[C@@H](CO)[C@H](O)[C@H]2O)cc1
21.1 | 85 |  | 5.2 |  | 22 |  | 3.6 | 32.7 | 3.5 | 6 |  | 12.7 | 43.3 | 464 | 64 | 75 |  |  |  | IC50 (Alpha-galactosidase): 41 µM; IC50 (Alpha-mannosidase): 274 µM; IC50 [14]: 313 µM | OC[C@H]1N[C@H](CCCCCCCc2ccccc2)[C@@H](O)[C@H]1O
 | 6.3 | 1.6 |  | 5 | 0.021 | 8.4 |  | 7.9 | 10.7 |  | 43.9 | 9.8 |  | 10 | 0.12 | 97 | 33 | 375 | 36 |  | OC[C@H]1N[C@H](CCCCCCCc2ccccc2)[C@@H](O)[C@@H]1O
 |  |  | 2.7 | 17.2 | 0.004 | 16.6 |  |  | 1.4 |  | 27 | 4.3 | 42.5 | 0.53 | 0.007 | 21 | 87 | 16 | 11 | inhibition (Oryza sativa): 43.4% | Cl.OC[C@H]1N[C@H]([C@H](O)CCCCCCc2ccc(F)c(F)c2)[C@@H](O)[C@@H]1O
 |  |  | 3.3 | 8.6 | 0.005 | 13.9 |  |  | 0 |  | 4.1 | 7.1 | 24.2 | 0.15 | 0.009 | 36 | 83 | 20 | 30 | inhibition (Oryza sativa): 10.2% | Cl.OC[C@H]1N[C@H]([C@H](O)CCCCCCc2ccc(F)cc2)[C@@H](O)[C@@H]1O
11.4 |  | 28 | 109 | 1.3 |  | 0.8 | 0.4 | 0 | 0 | 8.7 | 0 | 0 |  |  |  |  |  |  |  | inhibition (Oryza sativa): 34%; inhibition (Prunus dulcis): 9.6%; inhibition (Bos taurus [4]): 21%; inhibition (Bos taurus [17]): 37.3%; inhibition [10]: 4.8% | OC[C@@H]1N[C@@H]([C@H](O)CCCCCCc2ccc(Cl)cc2)[C@H](O)[C@H]1O
 | 119 | 66.6 |  | 19.6 | 0.03 | 15.1 |  | 16.8 | 0.8 |  | 35.1 | 46.1 |  | 9.8 | 0.12 | 3.3 | 21.6 | 282 | 30 |  | O=C1CCCC=C1CCCCCCC[C@H]1N[C@H](CO)[C@@H](O)[C@@H]1O
